≈ marks a conversion by molar mass, not a printed value.
Legend:
[1] = biological target: ERα receptor in MCF-7 human ductal carcinoma breast cell line (Homo sapiens (Human), UniProt P03372); experiment: MCF-7 ER down regulation assay (immuno-fluorescence); format: cell-based; conditions: MCF-7 cells, 18-22 hours incubation; read-out: ER down regulation IC50 value
Experimental: MCF-7 ER Down Regulation Assay
The ability of compounds to down-regulate Estrogen Receptor (ER) numbers was assessed in a cell based immuno-fluorescence assay using the MCF-7 human ductal carcinoma breast cell line. MCF-7 cells were revived directly from a cryovial (approx 5×10^6 cells) in Assay Medium (phenol red free Dulbecco's Modified Eagle's medium (DMEM) (Sigma D5921) containing 2mM L-Glutamine and 5% (v/v) Charcoal/Dextran treated foetal calf serum. Cells were syringed once using a sterile 18 G×1.5 inch (1.2×40 mm) broad gauge needle and cell density was measured using a Coulter Counter (Beckman). Cells were further diluted in Assay Medium to a density of 3.75×10^4 cells per mL and 40 μL per well added to transparent bottomed, black, tissue culture treated 384 well plates (Costar, No. 3712) using a Thermo Scientific Matrix WellMate or Thermo Multidrop. Following cell seeding, plates were incubated overnight at 37° C., 5% CO2 (Liconic carousel incubator). Test data was generated using the LabCyte Echo™ model 555 compound reformatter which is part of an automated workcell (Integrated Echo 2 workcell). 10 mM compound stock solutions of the test compounds were used to generate a 384 well compound dosing plate (Labcyte P-05525-CV1). […] 40 μΛ of DMSO added to wells in row P on the source plate allow for DMSO normalisation across the dose range. To dose the control wells 40 μL of DMSO was added to row O1 and 40 μL of 100 μM fulvestrant in DMSO was added to row O3 on the compound source plate. […] Compounds were dispensed onto the cell plates with a compound source plate prepared as above producing a 12 pt duplicate 3 μM to 3 pM dose range with 3 fold dilutions and one final 10 fold dilution using the Integrated Echo 2 workcell. […] Cells were fixed at room temperature for 20 mins before being washed two times with 250 μL PBS/Proclin (PBS with a Biocide preservative) using a BioTek platewasher, 40 μL of PBS/Proclin was then added to all wells and the plates stored at 4° C. The fixing method described above was carried out on the Integrated Echo 2 workcell. Immunostaining was performed using an automated AutoElisa workcell. The PBS/Proclin was aspirated from all wells and the cells permeabilised with 40 μL PBS containing 0.5% Tween™ 20 (v/v) for 1 hour at room temperature. The plates were washed three times in 250 μL of PBS/0.05% (v/v) Tween 20 with Proclin (PBST with a Biocide preservative) and then 20 μL of ERα (SP1) Rabbit monoclonal antibody (Thermofisher) 1:1000 in PBS/Tween™/3% (w/v) Bovine Serum Albumin was added. The plates were incubated overnight at 4° C. (Liconic carousel incubator) and then washed three times in 250 μL of PBS/0.05% (v/v) Tween™ 20 with Proclin (PBST). The plates were then incubated with 20 μL/well of a goat anti-rabbit IgG AlexaFluor 594 or goat anti-rabbit AlexaFluor 488 antibody (Molecular Probes) with Hoechst at 1:5000 in PBS/Tween™/3% (w/v) Bovine Serum Albumin for lhour at room temperature. The plates were then washed three times in 250 μL of PBS/0.05% (v/v) Tween™ 20 with Proclin (PBST with a Biocide preservative). 20 μL of PBS was added to each well and the plates covered with a black plate seal and stored at 4° C. before being read. Plates were read using a Cellomics Arrayscan reading the 594 nm (24 hr time point) or 488 nm (5 hr timepoint) fluorescence to measure the ERα receptor level in each well. The mean total intensity was normalized for cell number giving the total intensity per cell.

[2] = logD shake flask, 1-octanol/aqueous buffer; format: physicochemical; conditions: pH 7.4
Excerpt: The lipophilicity of a drug is an important physical property which may influence many biological and metabolic properties of a compound. The distribution coefficient between 1-octanol and aqueous buffer, Log DO/W, at pH 7.4, is the most commonly used measurement of the lipophilicity of a compound. The current method for measurement of Log DO/W is based on the traditional shake flask technique, but with the modification of measuring compounds in mixtures of ten at a time using UPLC with quantitative mass spectrometry (MS) as a method to measure the relative octanol and aqueous concentrations. […] An additional QC sample Caffeine, with low Log D, are used and randomly placed in all runs. The method has been thoroughly validated against the previous shake flask methodologies.

[3] = Thermodynamic solubility, shake-flask; format: physicochemical; conditions: thermodynamic from solid; aqueous phosphate buffer pH 7.4, 24 hours at 25° C.
Experimental: The thermodynamic solubility of a research compound is measured under standard conditions. It is a shake-flask approach that uses 10 mM DMSO solutions which are supplied from the Compound Managements liquid store and is a high throughput method. The dried compounds are equilibrated in an aqueous phosphate buffer (pH 7.4) for 24 hours at 25° C., the portion with the dissolved compound is then separated from the remains. The solutions are analyzed and quantified using UPLC/MS/MS, QC-samples are incorporated in each assay-run to ensure the quality of the assay.

[4] = Human plasma protein binding, equilibrium dialysis (RED); format: in vitro ADME; conditions: dialysis for 18 hours
Experimental: Human Plasma Protein Binding
The automated equilibrium dialysis assay in human plasma uses the RED (Rapid Equilibrium Dialysis) Device and sample handling. The assay generally runs over two to three days including delivery of results. After dialysis for 18 hours, plasma and buffer samples are prepared for analysis by liquid chromatography and mass spectrometry. Samples are generally tested in singlicates and quantified by LC/MSMS by using a 7-point calibration curve in plasma. The compounds are pooled together in plasma pools up to 10 compounds. Three reference compounds are used in each run, Propranolol, Metoprolol and Warfarin. Warfarin is used as a control in each pool and Propranolol and Metoprolol are placed randomly in each run. An in-house Excel macro is used for preparation of files for the robot and the mass spectrometer and also used for the calculations of fraction unbound (fu %) in plasma.

[5] = Human hepatocyte assay (metabolic stability); format: in vitro ADME; conditions: human hepatocytes, 37° C., 1.0×10^6 viable cells/mL; read-out: Clint (in vitro intrinsic clearance)
Experimental: The metabolic stability of compounds in human hepatocytes was assessed using the following protocol: • 1. Prepare 10 mM stock solutions of compound and control compounds in appropriate solvent (DMSO). Place incubation medium (L-15Medium) in a 37° C. water bath, and allow warming for at least 15 minutes prior to use. • 2. Add 80 μL of acetonitrile to each well of the 96-well deep well plate (quenching plate). • 3. In a new 96-well plate, dilute the 10 mM test compounds and the control compounds to 100 μM by combining 198 μL of acetonitrile and 2 μL of 10 mM stock. • 4. Remove a vial of cryopreserved (less than −150° C.) human hepatocytes (LiverPool™ 10 Donor Human hepatocytes obtained from Celsis IVT. Chicago, Ill. (Product No. S01205)) from storage, ensuring that vials remain at cryogenic temperatures until thawing process ensues. As quickly as possible, thaw the cells by placing the vial in a 37° C. water bath and gently shaking the vials. Vials should remain in water bath until all ice crystals have dissolved and are no longer visible. After thawing is completed, spray vial with 70% ethanol, transfer the vial to a bio-safety cabinet. • 5. Open the vial and pour the contents into the 50 mL conical tube containing thawing medium. Place the 50 mL conical tube into a centrifuge and spin at 100 g for 10 minutes. […] Using Cellometer® Vision, count cells and determine the viable cell density. Cells with poor viability (<80% viability) are not acceptable for use. Dilute cells with incubation medium to a working cell density of 1.0×10^6 viable cells/mL. • 7. Transfer 247.5 μL of hepatocytes into each well of a 96-well cell culture plate. Place the plate on Eppendorf Thermomixer Comfort plate shaker to allow the hepatocytes to warm for 10 minutes. • 8. Add 2.5 μL of 100 μM test compound or control compounds into an incubation well containing cells, mix to achieve a homogenous suspension at 0.5 min, which when achieved, will define the 0.5 min time point. At the 0.5 min time, transfer 20 μL incubated mixture to wells in a “Quenching plate” followed by vortexing. • 9. Incubate the plate at 37° C. at 900 rpm on an Eppendorf Thermomixer Comfort plate shaker. At 5, 15, 30, 45, 60, 80, 100 and 120 min, mix the incubation system and transfer samples of 20 μL incubated mixture at each time point to wells in a separate “Quenching plate” followed by vortexing. • 10. Centrifuge the quenching plates for 20 minutes at 4,000 rpm. 4 different compounds are pooled into one cassette and used for LC/MS/MS analysis.
All calculations are carried out using Microsoft Excel. Peak areas are determined from extracted ion chromatograms. In vitro intrinsic clearance (in vitro Clint, in μL/min/10^6 cells) of parent compound is determined by regression analysis of the Ln percent parent disappearance vs. time curve. The in vitro intrinsic clearance (in vitro Clint, in μL/min/10^6 cells) is determined from the slope value using the following equation and is shown in Table C:
V=incubation volume (0.25 mL);
N=number of hepatocytes per well (0.25×10 ^6 cells).

ERα receptor in MCF-7 human ductal carcinoma breast cell line, sequence (P03372 whole entry): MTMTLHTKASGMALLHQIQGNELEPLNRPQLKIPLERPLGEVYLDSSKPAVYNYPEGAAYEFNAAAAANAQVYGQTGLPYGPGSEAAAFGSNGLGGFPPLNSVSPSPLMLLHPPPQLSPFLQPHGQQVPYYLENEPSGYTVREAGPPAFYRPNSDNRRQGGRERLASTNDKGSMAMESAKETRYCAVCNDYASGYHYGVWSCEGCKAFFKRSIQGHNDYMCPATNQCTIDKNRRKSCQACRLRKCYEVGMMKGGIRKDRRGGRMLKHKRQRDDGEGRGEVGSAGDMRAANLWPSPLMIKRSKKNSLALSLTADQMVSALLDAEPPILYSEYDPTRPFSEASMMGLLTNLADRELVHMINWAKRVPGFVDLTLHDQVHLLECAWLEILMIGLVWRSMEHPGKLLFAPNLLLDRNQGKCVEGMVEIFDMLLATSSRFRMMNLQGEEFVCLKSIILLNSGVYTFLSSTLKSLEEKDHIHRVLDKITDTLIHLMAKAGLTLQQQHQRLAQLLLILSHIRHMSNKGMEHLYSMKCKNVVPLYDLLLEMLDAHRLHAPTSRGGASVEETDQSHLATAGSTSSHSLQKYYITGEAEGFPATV

Structure (SMILES): C[C@@H]1Cc2c(ccc3[nH]ncc23)[C@@H](c2ncc(OCCN3CC(CF)C3)cc2F)N1CC(F)(F)F [Example 50, (6S,8R)-6-(3-fluoro-5-(2-(3-(fluoromethyl)azetidin-1-yl)ethoxy)pyridin-2-yl)-8-methyl-7-(2,2,2-trifluoroethyl)-6,7,8,9-tetrahydro-3H-pyrazolo[4,3-f]isoquinoline]
- DC50 [1]: 0.5 nM
- logD [2]: 2.8
- solubility at 24 h [3]: 1000 µM (≈ 495 µg/mL)
- Human plasma protein binding (% free) [4]: 20 % free

Structure (SMILES): C[C@@H]1Cc2c(ccc3[nH]ncc23)[C@@H](c2ccc(OCCN3CC(CF)C3)cc2)N1CC1(F)CC1 [Example 29, (6R,8R)-7-((1-fluorocyclopropyl)methyl)-6-(4-(2-(3-(fluoromethyl)azetidin-1-yl)ethoxy)phenyl)-8-methyl-6,7,8,9-tetrahydro-3H-pyrazolo[4,3-f]isoquinoline]
- DC50 [1]: 0.35 nM
- hepatocyte CLint at 1 µM [5]: 12 µL/min/1e6 cells

Structure (SMILES): C[C@@H]1Cc2c(ccc3[nH]ncc23)[C@@H](c2c(F)cc(OCCN3CC(C(F)F)C3)cc2F)N1CC(C)(C)F [Example 38, (6S,8R)-6-(4-(2-(3-(difluoromethyl)azetidin-1-yl)ethoxy)-2,6-difluorophenyl)-7-(2-fluoro-2-methylpropyl)-8-methyl-6,7,8,9-tetrahydro-3H-pyrazolo[4,3-f]isoquinoline]
- DC50 [1]: 0.26 nM
- hepatocyte CLint at 1 µM [5]: 15 µL/min/1e6 cells

Structure (SMILES): CC(C)CN1[C@H](c2ccc(OCCN3CC(CF)C3)cc2)c2ccc3[nH]ncc3c2C[C@H]1C [Example 28, (6R,8R)-6-(4-(2-(3-(fluoromethyl)azetidin-1-yl)ethoxy)phenyl)-7-isobutyl-8-methyl-6,7,8,9-tetrahydro-3H-pyrazolo[4,3-f]isoquinoline]
- DC50 [1]: 0.14 nM
- hepatocyte CLint at 1 µM [5]: 8 µL/min/1e6 cells

Structure (SMILES): CC(C)CN1[C@H](c2ccc(OCCN3CC(CF)C3)cn2)c2ccc3[nH]ncc3c2C[C@H]1C [Example 40, (6S,8R)-6-(5-(2-(3-(fluoromethyl)azetidin-1-yl)ethoxy)pyridin-2-yl)-7-isobutyl-8-methyl-6,7,8,9-tetrahydro-3H-pyrazolo[4,3-f]isoquinoline]
- DC50 [1]: 0.36 nM
- hepatocyte CLint at 1 µM [5]: 8 µL/min/1e6 cells

Structure (SMILES): C[C@@H]1Cc2c(ccc3[nH]ncc23)[C@@](C)(c2ccc(OCCN3CC(CF)C3)cc2)N1CC1(F)COC1 [Example 32, (6R,8R)-6-(4-(2-(3-(fluoromethyl)azetidin-1-yl)ethoxy)phenyl)-7-((3-fluorooxetan-3-yl)methyl)-6,8-dimethyl-6,7,8,9-tetrahydro-3H-pyrazolo[4,3-f]isoquinoline]
- DC50 [1]: 0.076 nM
- hepatocyte CLint at 1 µM [5]: 29 µL/min/1e6 cells
